What was measured:
[1] = system: normal primary NK cells, pool 1 (3 donors) (IL-2 2.5 ng/mL); assay: percent inhibition of viability; higher = more inhibition; conditions: 72 h
[2] = system: normal primary NK cells, pool 3 (3 donors) (IL-2 2.5 ng/mL); assay: as above; conditions: 72 h
DERL-7 (IL-2 2.5 ng/mL) [3] = assay: as above; conditions: 72 h
NK-92 (IL-2 2.5 ng/mL) [4] = assay: as above; conditions: 72 h
YT (IL-2 2.5 ng/mL) [5] = assay: as above; conditions: 72 h
[6] = system: normal primary NK cells, pool 2 (3 donors) (IL-2 2.5 ng/mL); assay: as above; conditions: 72 h
IMC-1 (IL-2 20 ng/mL) [7] = assay: as above; conditions: 72 h
SNK-6 (IL-2 2.5 ng/mL) [8] = assay: as above; conditions: 72 h
[9] = system: normal primary NK cells, pool 1 (3 donors), resting (IL-2 0 ng/mL); assay: as above; conditions: 72 h
KAI3 (IL-2 2.5 ng/mL) [10] = assay: as above; conditions: 72 h
NK-YS (IL-2 2.5 ng/mL) [11] = assay: as above; conditions: 72 h
NKL (IL-2 2.5 ng/mL) [12] = assay: as above; conditions: 72 h
KHYG-1 (IL-2 2.5 ng/mL) [13] = assay: as above; conditions: 72 h
[14] = system: normal NK cells expanded with K562-aAPC; assay: as above; conditions: 72 h, IL-2 2.5 ng/mL
Description: (§1)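 Drug sensitivity and resistance testing on K562-aAPC-expanded normal NK cells: 5 concentrations (10-fold steps over a 10,000-fold range), 72 h at 37 °C, viability by CellTiter-Glo normalised to DMSO and benzethonium chloride controls; DSS from the fitted curve.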

[15] = system: normal NK cells expanded with K562-aAPC; assay: drug sensitivity score (DSS) (DSS units); higher = more sensitive; extreme values may be limits of the assay; conditions: 72 h; IL-2 2.5 ng/mL
Description: as §1

[16] = system: normal primary NK cells, pool 1 (3 donors) (IL-2 2.5 ng/mL); assay: as above; conditions: 72 h
[17] = system: normal primary NK cells, pool 3 (3 donors) (IL-2 2.5 ng/mL); assay: as above; conditions: 72 h
DERL-7 (IL-2 2.5 ng/mL) [18] = assay: as above; conditions: 72 h
NK-92 (IL-2 2.5 ng/mL) [19] = assay: as above; conditions: 72 h
YT (IL-2 2.5 ng/mL) [20] = assay: as above; conditions: 72 h
[21] = system: normal primary NK cells, pool 2 (3 donors) (IL-2 2.5 ng/mL); assay: as above; conditions: 72 h
IMC-1 (IL-2 20 ng/mL) [22] = assay: as above; conditions: 72 h
SNK-6 (IL-2 2.5 ng/mL) [23] = assay: as above; conditions: 72 h
[24] = system: normal primary NK cells, pool 1 (3 donors), resting (IL-2 0 ng/mL); assay: as above; conditions: 72 h
KAI3 (IL-2 2.5 ng/mL) [25] = assay: as above; conditions: 72 h
NK-YS (IL-2 2.5 ng/mL) [26] = assay: as above; conditions: 72 h
NKL (IL-2 2.5 ng/mL) [27] = assay: as above; conditions: 72 h
KHYG-1 (IL-2 2.5 ng/mL) [28] = assay: as above; conditions: 72 h

Cc1ccc(-c2cc(C(F)(F)F)nn2-c2ccc(S(N)(=O)=O)cc2)cc1 [Celecoxib] (max concentration tested 10000 nM)
percent inhibition of viability [%]
Conditions | 1 nM | 10 nM | 100 nM | 1000 nM | 10000 nM
DERL-7 (IL-2 2.5 ng/mL) [3] | -4.04 | -0.66 | 2.98 | 0.77 | 20.1
IMC-1 (IL-2 20 ng/mL) [7] | -1.63 | 4.12 | 3.17 | 8.92 | 21.4
KAI3 (IL-2 2.5 ng/mL) [10] | -0.1 | 5.86 | 3.78 | 10.9 | 16.6
KHYG-1 (IL-2 2.5 ng/mL) [13] | -2.14 | 0.22 | 3.78 | 5.35 | 11.5
NK-92 (IL-2 2.5 ng/mL) [4] | -11.1 | 9.29 | 13.9 | 6.91 | 36.8
NK-YS (IL-2 2.5 ng/mL) [11] | 3.79 | 1.41 | 5.74 | 5.5 | 17.7
NKL (IL-2 2.5 ng/mL) [12] | 12.9 | 8.06 | 8.99 | 8.49 | 13.6
SNK-6 (IL-2 2.5 ng/mL) [8] | 7.19 | 19.3 | 11.5 | 33.2 | 29.1
YT (IL-2 2.5 ng/mL) [5] | 6.8 | 6.48 | 10.3 | 10.8 | 21.6
[1] | -3.14 | -6.46 | -5.04 | -13.6 | 17.4
[2] | -11.6 | 1.86 | 9.55 | -0.12 | 12.8
[6] | -5.46 | -3.07 | 8.51 | -1.27 | 21.4
[9] | -5.64 | -19.9 | -6.8 | -14.5 | 38.8
[14] | 5.69 | 5.19 | 8.1 | 13.1 | 11.9

Conditions | drug sensitivity score
DERL-7 (IL-2 2.5 ng/mL) [18] | 0.68
IMC-1 (IL-2 20 ng/mL) [22] | 1.17
KAI3 (IL-2 2.5 ng/mL) [25] | 0.73
KHYG-1 (IL-2 2.5 ng/mL) [28] | 0
NK-92 (IL-2 2.5 ng/mL) [19] | 2.8
NK-YS (IL-2 2.5 ng/mL) [26] | 0.44
NKL (IL-2 2.5 ng/mL) [27] | 0
SNK-6 (IL-2 2.5 ng/mL) [23] | 7.44
YT (IL-2 2.5 ng/mL) [20] | 1.78
[15] | 0.46
[16] | 0.17
[17] | 0.08
[21] | 0.61
[24] | 1.32

CC(C)[C@H]1C(=O)N[C@@H](CCCNC(=N)N)C(=O)NCC(=O)N[C@@H](CC(=O)O)C(=O)N[C@H](Cc2ccccc2)C(=O)N1C [Cilengitide] (max concentration tested 10000 nM)
percent inhibition of viability [%]
Conditions | 1 nM | 10 nM | 100 nM | 1000 nM | 10000 nM
DERL-7 (IL-2 2.5 ng/mL) [3] | 1.94 | -0.89 | 5.16 | -1.67 | 1.74
IMC-1 (IL-2 20 ng/mL) [7] | -4.13 | -2.67 | -2.6 | -4.07 | -10
KAI3 (IL-2 2.5 ng/mL) [10] | 0.99 | -4.51 | 0.53 | -7.41 | -4.2
KHYG-1 (IL-2 2.5 ng/mL) [13] | -4.74 | -8.58 | -8.46 | -5.89 | -5.46
NK-92 (IL-2 2.5 ng/mL) [4] | -6.89 | -15.6 | -2.78 | -19.4 | -3.46
NK-YS (IL-2 2.5 ng/mL) [11] | 3.77 | -3.77 | -3.08 | -1.52 | -1.33
NKL (IL-2 2.5 ng/mL) [12] | -5.73 | -8.69 | -8.49 | -3.48 | -5.17
SNK-6 (IL-2 2.5 ng/mL) [8] | 5.33 | -1.64 | -18.7 | -5.25 | -3.56
YT (IL-2 2.5 ng/mL) [5] | -3.44 | -9.37 | -2 | -8.27 | -2.28
[1] | -11.5 | -10.7 | -11.7 | -4.42 | -5.41
[2] | -10.7 | -5.35 | -6.3 | -9.92 | -10.2
[6] | -8.85 | -4.43 | -5.82 | -9.18 | -7.87
[9] | -16.2 | -13.2 | -18.2 | -14 | -17.6
[14] | -8.83 | -11.2 | -7.88 | -10.2 | -11.3

Conditions | drug sensitivity score
DERL-7 (IL-2 2.5 ng/mL) [18] | 0
IMC-1 (IL-2 20 ng/mL) [22] | 0
KAI3 (IL-2 2.5 ng/mL) [25] | 0
KHYG-1 (IL-2 2.5 ng/mL) [28] | 0
NK-92 (IL-2 2.5 ng/mL) [19] | 0
NK-YS (IL-2 2.5 ng/mL) [26] | 0
NKL (IL-2 2.5 ng/mL) [27] | 0
SNK-6 (IL-2 2.5 ng/mL) [23] | 0
YT (IL-2 2.5 ng/mL) [20] | 0
[15] | 0
[16] | 0
[17] | 0
[21] | 0
[24] | 0

Nc1nc(Cl)nc2c1ncn2[C@H]1C[C@H](O)[C@@H](CO)O1 [Cladribine] (max concentration tested 1000 nM)
percent inhibition of viability [%]
Conditions | 0.1 nM | 1 nM | 10 nM | 100 nM | 1000 nM
DERL-7 (IL-2 2.5 ng/mL) [3] | -4.72 | -1.74 | 2.44 | 83.3 | 100
IMC-1 (IL-2 20 ng/mL) [7] | -1.93 | -4.54 | -8.55 | 59.4 | 99.9
KAI3 (IL-2 2.5 ng/mL) [10] | -17.3 | -11.1 | -4.18 | 61.5 | 92.2
KHYG-1 (IL-2 2.5 ng/mL) [13] | -2.1 | -6.64 | 0.12 | 102 | 99.4
NK-92 (IL-2 2.5 ng/mL) [4] | -7.06 | -4.86 | 2.88 | 92.3 | 97.7
NK-YS (IL-2 2.5 ng/mL) [11] | -8.76 | -10.6 | -9.2 | 7.65 | 88.2
NKL (IL-2 2.5 ng/mL) [12] | -13.2 | -8.81 | -9.87 | 104 | 98.6
SNK-6 (IL-2 2.5 ng/mL) [8] | 11.6 | 5.52 | 8.41 | 66.9 | 91.5
YT (IL-2 2.5 ng/mL) [5] | -4 | -5.35 | -6.95 | 5.62 | 56.9
[1] | -5.25 | -7.26 | 23.2 | 93.1 | 96.5
[2] | -12.6 | -10.5 | 18.2 | 87.7 | 97
[6] | -13.2 | -12.7 | 24.4 | 90.6 | 93.7
[9] | -18.2 | -14.8 | 62 | 90.2 | 90
[14] | -1.61 | -1.55 | 30.3 | 100 | 100

Conditions | drug sensitivity score
DERL-7 (IL-2 2.5 ng/mL) [18] | 15.4
IMC-1 (IL-2 20 ng/mL) [22] | 12.5
KAI3 (IL-2 2.5 ng/mL) [25] | 12.2
KHYG-1 (IL-2 2.5 ng/mL) [28] | 18.2
NK-92 (IL-2 2.5 ng/mL) [19] | 17.1
NK-YS (IL-2 2.5 ng/mL) [26] | 6.1
NKL (IL-2 2.5 ng/mL) [27] | 17.6
SNK-6 (IL-2 2.5 ng/mL) [23] | 13.8
YT (IL-2 2.5 ng/mL) [20] | 3.98
[15] | 22.4
[16] | 20.3
[17] | 18.4
[21] | 20.3
[24] | 23.5
